Measurements reported in patent US9322066B2, “Predictors for cancer treatment” (priority 2011, dated 2016).

Test system: relapsed or refractory, rituximab-naive or -sensitive follicular B-cell NHL
Test: Treatment free interval, Vc-R vs rituximab study, by biomarker
Type: in vivo, human
Parameters: Treatment Free Interval, Median: unit not given here
Details: for Treatment Free Interval, Evt/N / Treatment Free Interval, Median: IRC Review
Source text: Non-Hodgkin lymphoma (NHL) encompasses several unique malignant lymphoid disease entities that vary in clinical behavior, morphologic appearance, immunologic, and molecular phenotype. […] A randomized, open-label, active-controlled, multicenter, multinational, prospective study to compare the efficacy and safety of the combination of bortezomib and rituximab (Vc-R) to single-agent rituximab in subjects who have relapsed or refractory, rituximab-naive or -sensitive follicular B-cell NHL was performed.
Subjects were centrally randomized to Treatment Groups A (Vc-R) or B (rituximab) in a 1:1 ratio taking into account the following stratification factors: • Follicular Lymphoma International Prognostic Index (FLIPI) score (low [0 or 1 factor], intermediate [2 factors], high [≧3 factors]); • Prior rituximab therapy (yes, no); • Time since last dose of anti-lymphoma therapy (≦1 year, >1 year); • Region (United States/Canada, European Union, Rest of World).
The following clinical endpoints were included in the analysis within each treatment group and an overall comparison was made with the biomarker-related endpoints: Progression-free survival, defined as the interval between the date of randomization and the date of progressive disease (PD) or death, whichever is first reported in the ITT population; overall survival; overall response rate (complete response [CR]+CR unconfirmed [CRu]+partial response [PR]); overall CR rate (CR+CRu); duration of response; time to next anti-lymphoma therapy; and treatment free interval.

[1] = 20S % NUCLEAR STAINING 0-20, Female
[2] = 20S % NUCLEAR STAINING 60-70, Male
[3] = 20S % NUCLEAR STAINING 60-70, Prior Rituximab Therapy
[4] = 20S INTENSITY CYTOPLASMIC SIGNAL: ≧3+, European Union
[5] = CD68 OVERALL POSITIVE: 0-25, 2 Prior Lines of Therapy
[6] = CD68 OVERALL POSITIVE: 0-25, >1 year since last anti-lymphoma treatment
[7] = CD68 OVERALL POSITIVE: 0-25, Ann Arbor Stage III
[8] = CD68 OVERALL POSITIVE: 0-25, Ann Arbor Stage IV
[9] = CD68 OVERALL POSITIVE: 0-25, European Union
[10] = CD68 OVERALL POSITIVE: 0-25, Female
[11] = CD68 OVERALL POSITIVE: 0-25, Intermediate FLIPI Score
[12] = CD68 OVERALL POSITIVE: 0-25, Low FLIPI Score
[13] = CD68 OVERALL POSITIVE: 0-25, No High Tumor Burden
[14] = CD68 OVERALL POSITIVE: 0-25, No Prior Rituximab Therapy
[15] = CD68 OVERALL POSITIVE: 0-25, No Subgroup
[16] = CD68 OVERALL POSITIVE: 0-25, Prior Rituximab Therapy
[17] = CD68 OVERALL POSITIVE: 0-25, White
[18] = CD68 OVERALL POSITIVE: 0-25, ≦65 years old
[19] = CD68 OVERALL POSITIVE: >75, Male
[20] = CD68 POSITIVE FOLLICULAR: 0-25, >1 year since last anti-lymphoma treatment
[21] = CD68 POSITIVE FOLLICULAR: 0-25, Ann Arbor Stage III
[22] = CD68 POSITIVE FOLLICULAR: 0-25, Asian
[23] = CD68 POSITIVE FOLLICULAR: 0-25, Female
[24] = CD68 POSITIVE FOLLICULAR: 0-25, No High Tumor Burden
[25] = CD68 POSITIVE FOLLICULAR: 0-25, No Prior Rituximab Therapy
[26] = CD68 POSITIVE FOLLICULAR: 0-25, No Subgroup
[27] = CD68 POSITIVE FOLLICULAR: 0-25, White
[28] = CD68 POSITIVE FOLLICULAR: 0-25, ≦65 years old
[29] = CD68 POSITIVE PERIFOLLICULAR: 0-25, 2 Prior Lines of Therapy
[30] = CD68 POSITIVE PERIFOLLICULAR: 0-25, >1 year since last anti-lymphoma treatment
[31] = CD68 POSITIVE PERIFOLLICULAR: 0-25, Ann Arbor Stage IV
[32] = CD68 POSITIVE PERIFOLLICULAR: 0-25, Female
[33] = CD68 POSITIVE PERIFOLLICULAR: 0-25, Intermediate FLIPI Score
[34] = CD68 POSITIVE PERIFOLLICULAR: 0-25, No High Tumor Burden
[35] = CD68 POSITIVE PERIFOLLICULAR: 0-25, No Prior Rituximab Therapy
[36] = CD68 POSITIVE PERIFOLLICULAR: 0-25, No Subgroup
[37] = CD68 POSITIVE PERIFOLLICULAR: 0-25, White
[38] = CD68 POSITIVE PERIFOLLICULAR: 0-25, ≦65 years old
[39] = CD68 POSITIVE PERIFOLLICULAR: 26-50, Other
[40] = CD68 POSITIVE PERIFOLLICULAR: >75, 1 Prior Line of Therapy
[41] = CD68 POSITIVE PERIFOLLICULAR: >75, European Union
[42] = CD68 POSITIVE PERIFOLLICULAR: >75, ≦65 years old
[43] = P27 % NUCLEI POSITIVE: 0-20, 1 Prior Line of Therapy
[44] = P27 % NUCLEI POSITIVE: 0-20, Ann Arbor Stage III
[45] = P27 % NUCLEI POSITIVE: 0-20, ≦65 years old
[46] = P27 % NUCLEI POSITIVE: 30-50, High Tumor Burden
[47] = P27 SIGNAL INTENSITY: ≦1+, High Tumor Burden
[48] = P27 SIGNAL INTENSITY: ≧2+, 5 Prior Lines of Therapy

## rituximab
[1]
  Treatment Free Interval, Evt/N: 35/61
  Treatment Free Interval, Median: 427
[2]
  Treatment Free Interval, Evt/N: 14/16
  Treatment Free Interval, Median: 110
[3]
  Treatment Free Interval, Evt/N: 17/21
  Treatment Free Interval, Median: 190
[4]
  Treatment Free Interval, Evt/N: 34/52
  Treatment Free Interval, Median: 393
Biomarker positive (PSMB1 P11A heterozygote and CD68 Low)
  duration of treatment free interval: 10.1 mo
[5]
  Treatment Free Interval, Evt/N: 6/8
  Treatment Free Interval, Median: 80
[6]
  Treatment Free Interval, Evt/N: 17/26
  Treatment Free Interval, Median: 269
[7]
  Treatment Free Interval, Evt/N: 12/16
  Treatment Free Interval, Median: 135
[8]
  Treatment Free Interval, Evt/N: 15/22
  Treatment Free Interval, Median: 293
[9]
  Treatment Free Interval, Evt/N: 14/22
  Treatment Free Interval, Median: 234
[10]
  Treatment Free Interval, Evt/N: 16/26
  Treatment Free Interval, Median: 293
[11]
  Treatment Free Interval, Evt/N: 7/11
  Treatment Free Interval, Median: 343
[12]
  Treatment Free Interval, Evt/N: 8/10
  Treatment Free Interval, Median: 281
[13]
  Treatment Free Interval, Evt/N: 8/14
  Treatment Free Interval, Median: 411
[14]
  Treatment Free Interval, Evt/N: 12/19
  Treatment Free Interval, Median: 393
[15]
  Treatment Free Interval, Evt/N: 30/44
  Treatment Free Interval, Median: 269
[16]
  Treatment Free Interval, Evt/N: 18/25
  Treatment Free Interval, Median: 115
[17]
  Treatment Free Interval, Evt/N: 24/35
  Treatment Free Interval, Median: 269
[18]
  Treatment Free Interval, Evt/N: 24/34
  Treatment Free Interval, Median: 234
CD68 OVERALL POSITIVE: 51-75, No High Tumor Burden
  Treatment Free Interval, Evt/N: 10/25
[19]
  Treatment Free Interval, Evt/N: 8/9
  Treatment Free Interval, Median: 272
[20]
  Treatment Free Interval, Evt/N: 22/34
  Treatment Free Interval, Median: 409
[21]
  Treatment Free Interval, Evt/N: 19/24
  Treatment Free Interval, Median: 190
[22]
  Treatment Free Interval, Evt/N: 5/6
  Treatment Free Interval, Median: 148
[23]
  Treatment Free Interval, Evt/N: 23/37
  Treatment Free Interval, Median: 307
[24]
  Treatment Free Interval, Evt/N: 14/22
  Treatment Free Interval, Median: 432
[25]
  Treatment Free Interval, Evt/N: 23/36
  Treatment Free Interval, Median: 344
[26]
  Treatment Free Interval, Evt/N: 40/60
  Treatment Free Interval, Median: 307
[27]
  Treatment Free Interval, Evt/N: 32/48
  Treatment Free Interval, Median: 307
[28]
  Treatment Free Interval, Evt/N: 33/46
  Treatment Free Interval, Median: 190
[29]
  Treatment Free Interval, Evt/N: 6/8
  Treatment Free Interval, Median: 64
[30]
  Treatment Free Interval, Evt/N: 15/24
  Treatment Free Interval, Median: 393
[31]
  Treatment Free Interval, Evt/N: 11/15
  Treatment Free Interval, Median: 234
[32]
  Treatment Free Interval, Evt/N: 19/28
  Treatment Free Interval, Median: 234
[33]
  Treatment Free Interval, Evt/N: 7/13
  Treatment Free Interval, Median: 361
[34]
  Treatment Free Interval, Evt/N: 8/13
  Treatment Free Interval, Median: 361
[35]
  Treatment Free Interval, Evt/N: 12/18
  Treatment Free Interval, Median: 393
[36]
  Treatment Free Interval, Evt/N: 26/39
  Treatment Free Interval, Median: 234
[37]
  Treatment Free Interval, Evt/N: 19/27
  Treatment Free Interval, Median: 361
[38]
  Treatment Free Interval, Evt/N: 20/31
  Treatment Free Interval, Median: 143
[39]
  Treatment Free Interval, Evt/N: 4/4
  Treatment Free Interval, Median: 217
[40]
  Treatment Free Interval, Evt/N: 15/18
  Treatment Free Interval, Median: 297
[41]
  Treatment Free Interval, Evt/N: 13/17
  Treatment Free Interval, Median: 533
[42]
  Treatment Free Interval, Evt/N: 19/23
  Treatment Free Interval, Median: 297
[43]
  Treatment Free Interval, Evt/N: 19/26
  Treatment Free Interval, Median: 293
[44]
  Treatment Free Interval, Evt/N: 14/16
  Treatment Free Interval, Median: 275
[45]
  Treatment Free Interval, Evt/N: 26/34
  Treatment Free Interval, Median: 187
[46]
  Treatment Free Interval, Evt/N: 17/22
  Treatment Free Interval, Median: 280
P27 % NUCLEI POSITIVE: 60-70, 3 Prior Lines of Therapy
  Treatment Free Interval, Evt/N: 1/6
[47]
  Treatment Free Interval, Evt/N: 16/18
  Treatment Free Interval, Median: 122
[48]
  Treatment Free Interval, Evt/N: 5/6
  Treatment Free Interval, Median: 88
P27 SIGNAL INTENSITY: ≧2+, Prior Rituximab Therapy
  Treatment Free Interval, Evt/N: 60/88
